In patent US20240139183A1, “COMPOUND FOR SUPPRESSING NONSENSE-MEDIATED MRNA DECAY” (RiboTech Co., Ltd., priority 2021, published 2024):

How the values were obtained:
[1] = test system: NMD steps (Upf1, Upf2, Upf3X tethered to reporter β-6bs mRNA); assay: Tethering assay: MS2-Upf1, MS2-Upf2, MS2-Upf3 tethered to 3' UTR of reporter mRNA in HeLa cell line, real-time PCR; format: cell-based; conditions: 5 μM, 6 hours or 12 hours, FIGS. 8 and 9
Method: An NMD-based search system capable of artificially reducing the amount of reporter mRNA was constructed, after artificially tethering proteins Upf1, Upf2, and Upf3X acting in each step of NMD to 3′ UTR of reporter mRNA (FIG. 7). Using this method, it was attempted to verify which step of NMD the three types of compounds acted on.
After treating the cell line with each compound at 5 μM for 6 hours or 12 hours, a cell extract was obtained. Thereafter, the relative amount of reporter mRNA was measured through real-time PCR.

[2] = test system: NMD (HeLa cell line constitutively expressing the NMD-target mRNA); assay: NMD inhibitory effect in HeLa reporter cell line: RLuc mRNA (real-time PCR) and protein (dual luciferase assay); format: cell-based; conditions: 5 μM, 12 hours, FIG. 4; for amount of RLuc mRNA: real-time PCR
From the text: In Example 1, a beta-globin normal gene or the gene including a premature termination codon (PTC) found in genetic diseases was inserted into the downstream of a chemiluminescence gene, Renilla luciferase (RLuc). Normal gene-inserted mRNA was not targeted by NMD, whereas when a gene having PTC was inserted, the mRNA became a NMD target, and as a result, mRNA was quickly broken down and the expression level of RLuc was reduced.
Accordingly, a HeLa cell line constitutively expressing the NMD-target mRNA was prepared, and simultaneously, the cell line was designed to constitutively express a firefly luciferase (FLuc) gene, which was not a target of NMD, and a total of three cell lines NMD20, NMD4, and NMD5 with the same composition were obtained. In order to confirm whether the HeLa cell line prepared above was suitable for measuring NMD efficiency, the following two experiments were performed.
The NMD inhibitory effect of Compounds 1 to 3 was confirmed using the HeLa cell line prepared in Example 1. After treating the cells with Compounds 1 to 3 at 5 μM for 12 hours, respectively, total RNA and protein were purified from the cells, respectively. Then, the amounts of RNA and protein were quantified respectively through real-time PCR and dual luciferase assay methods. The results were illustrated in FIG. 4.

UPF1 = assay: Western blotting of UPF1 phosphorylation in treated cells; format: cell-based; conditions: 5 μM, 12 hours, FIG. 5
Method: Phosphorylation of UPF1 was known to be one of the most important factors in NMD. In Example 3.1, the effect of the three types of compounds of the present invention on phosphorylation of UPF1 was examined. The cells were treated with each compound at 5 μM for 12 hours, and then total proteins were purified. Then, western blotting was performed using each antibody capable of recognizing Upf1 or Upf1 phosphorylated at a specific site.

[3] = target: T1, binding between UPF1 and UPF2 (Homo sapiens, UniProt Q92900); assay: FLAG-UPF1 immunoprecipitation / western blotting for UPF1-UPF2 binding; format: cell-based; conditions: 5 μM, 1 hour; FLAG-UPF1 overexpressed; immunoprecipitation with FLAG antibody; FIG. 6
T1 construct: expressed in transfected cells
T1 sequence (Q92900 1-1129): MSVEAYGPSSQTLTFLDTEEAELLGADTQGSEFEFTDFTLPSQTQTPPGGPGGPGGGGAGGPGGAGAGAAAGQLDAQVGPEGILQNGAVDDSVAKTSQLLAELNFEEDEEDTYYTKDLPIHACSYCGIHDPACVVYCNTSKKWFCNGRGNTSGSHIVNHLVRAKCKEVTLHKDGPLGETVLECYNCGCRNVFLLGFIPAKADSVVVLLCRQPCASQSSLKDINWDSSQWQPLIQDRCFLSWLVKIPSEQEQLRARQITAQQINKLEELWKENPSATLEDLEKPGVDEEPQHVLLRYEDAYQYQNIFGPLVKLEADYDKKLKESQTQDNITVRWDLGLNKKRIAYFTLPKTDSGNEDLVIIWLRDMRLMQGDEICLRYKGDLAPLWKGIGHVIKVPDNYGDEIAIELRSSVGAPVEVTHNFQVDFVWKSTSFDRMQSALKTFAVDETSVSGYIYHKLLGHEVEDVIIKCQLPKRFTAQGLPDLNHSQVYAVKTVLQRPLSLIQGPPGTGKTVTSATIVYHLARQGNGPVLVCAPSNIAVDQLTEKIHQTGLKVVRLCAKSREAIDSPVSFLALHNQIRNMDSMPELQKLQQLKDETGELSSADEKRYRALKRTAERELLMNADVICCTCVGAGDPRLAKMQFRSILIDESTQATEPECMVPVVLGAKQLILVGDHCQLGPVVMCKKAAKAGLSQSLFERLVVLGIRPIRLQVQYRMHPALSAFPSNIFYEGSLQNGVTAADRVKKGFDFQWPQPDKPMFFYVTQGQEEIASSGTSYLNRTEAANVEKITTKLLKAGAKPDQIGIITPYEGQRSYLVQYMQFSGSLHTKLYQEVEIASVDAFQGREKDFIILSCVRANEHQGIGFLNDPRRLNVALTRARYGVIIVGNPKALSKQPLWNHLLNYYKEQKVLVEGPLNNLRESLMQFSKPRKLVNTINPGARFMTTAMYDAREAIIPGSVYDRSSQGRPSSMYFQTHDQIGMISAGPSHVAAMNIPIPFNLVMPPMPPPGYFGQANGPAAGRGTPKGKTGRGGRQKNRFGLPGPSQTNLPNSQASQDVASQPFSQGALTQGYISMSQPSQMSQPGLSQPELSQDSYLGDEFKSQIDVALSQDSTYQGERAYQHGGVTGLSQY
Method: In the cell line, DNA expressing FLAG-UPF1 was transiently overexpressed.
After treating the cell line with each compound at 5μM for 1 hour, a cell extract was obtained. Immunoprecipitation was performed on the cell extract obtained using a FLAG antibody.
Proteins before and after immunoprecipitation were analyzed by western blotting.

[4] = test system: dystrophin protein in cells derived from patients with DMD; assay: Dystrophin protein by Western blotting in DMD patient-derived cell line; format: cell-based, human; conditions: 5 μM, 12 hours, FIG. 11

Compound	step of NMD targeted (relative amount of reporter mRNA) [1]	protein translation of RLuc ([2]; dual luciferase assay)	effect on phosphorylation of UPF1 (UPF1)	effect on UPF1-UPF2 binding [3]	amount of dystrophin protein [4]	amount of RLuc mRNA [2]
COc1ncc(-c2ccc3nccc(-c4ccnnc4)c3c2)cc1NS(=O)(=O)c1ccc(F)cc1F [Compound 1, 2,4-Difluoro-N-{2-(methyloxy)-5-[4-(4-pyridazinyl)-6-quinolinyl]-3-pyridinyl}benzenesulfonamide]	targeted a UPF1-UPF2 step	increased protein translation of RLuc	did not significantly affect phosphorylation of UPF1	significantly inhibited the UPF1-UPF2 binding	increased	
Cn1c(=O)n(-c2ccc(C(C)(C)C#N)cc2)c2c3cc(-c4cnc5ccccc5c4)ccc3ncc21 [Compound 2, 2-methyl-2-{4-[3-methyl-2-oxo-8-(quinolin-3-yl)-2,3-dihydro-1H-imidazo[4,5-c]quinolin-1-yl]phenyl}propanenitrile]	did not target the UPF1-UPF2 and UPF2-UPF3 steps		significantly inhibited phosphorylation of UPF1	did not significantly affect the UPF1-UPF2 binding		significantly increased the amount of mRNA
COc1cc2ncnc(-n3nc(-c4ccccn4)nc3N)c2cc1OC [Compound 3, 1-(6,7-Dimethoxy-4-quinazolinyl)-3-(2-pyridinyl)-1H-1,2,4-Triazol-5-amine]	did not target the UPF1-UPF2 and UPF2-UPF3 steps		did not significantly affect phosphorylation of UPF1	did not significantly affect the UPF1-UPF2 binding		significantly increased the amount of mRNA
